In PubChem BioAssay (NCI):
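Each compound was tested at five concentrations against cells in 96-well plates for 48 hours. Here, GI50 denotes the concentration required for 50% inhibition of growth. At the TGI there is no net growth.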

Each molecule was assayed on MDA-MB-468 breast (assay: NCI-60 cell line screen, 48 h).

Row | Compound | GI50 [µM] | TGI [µM]
1 | COc1ccc(C(=O)c2ccc(OC)cc2OC)cc1 | 1.21 | 3.89
2 | CC1=C([Se]CC(OC(=O)[C@@H](CSSC(C)(C)C)NC(=O)C(C)(C)C)C(=O)NCCCCCC(=O)OCc2ccccc2)C(=O)c2ccccc2C1=O (stereo not given in full) | 2.19 | 4.35
3 | Cc1c(N)nc([C@H](CC(N)=O)NC[C@H](N)C(N)=O)nc1C(=O)N[C@H](C(=O)N[C@H](C)[C@@H](O)[C@H](C)C(=O)N[C@H](C(=O)NCCc1nc(-c2nc(C(=O)NCCC[S+](C)C)cs2)cs1)[C@@H](C)O)C(OC1OC(CO)C(O)C(O)C1OC1OC(CO)C(O)C(OC(N)=O)C1O)c1cnc[nH]1 (stereo not given in full) | 2.48 | 15.3
4 | Cc1cc(S(=O)(=O)/N=C(\N)n2nc(C)c(C)c2C)c(SCc2ccccc2)cc1Cl | 12.1 | 92.4
5 | Nc1nc(N)c2c(n1)NC(c1ccc(C(F)(F)F)cc1)CC(c1ccc(Nc3nc(NCCO)nc(Nc4ccc(Cl)cc4)n3)cc1)=N2 (stereo not given) | 1.58 | 3.21
6 | C=C1C(=O)O[C@H]2[C@H]1CC/C(Cn1cc(Cn3ccc4cc(Cl)ccc43)nn1)=C\CC[C@@]1(C)O[C@@H]21 | 0.908 | 2.55
7 | CCC[C@H](Nc1nc(-c2ccc(NC(=O)NCC)c(OC)c2)ncc1C)c1cccnc1 | 0.0246 | 0.0709
8 | O=C(/C=C/C12c3ccccc3C(c3ccccc31)C1C(=O)NC(=O)C12)c1ccco1 (stereo not given) | 2.2 | 4.93
9 | O=c1[nH]cnc2c1nnn2[C@@H]1O[C@H](CO)[C@@H](O)[C@H]1O | 1.54 | 24.5
10 | C=C1C(=O)O[C@H]2[C@H]1CC/C(COC(=O)NCCc1c[nH]c3ccccc13)=C\CC[C@@]1(C)O[C@@H]21 | 1.38 | 4.32
11 | O=C(/C=C/c1ccc2c(c1)OCO2)c1ccccc1 | 13.9 | 28
12 | C[C@@H](Oc1cc(-c2cnn(C3CC4(CCNCC4)C3)c2)cnc1N)c1c(F)ccc(Cl)c1Cl | 0.562 | 2.12
13 | Cc1cc(Nc2nc(N3CCOCC3)nc3ccccc23)n[nH]1 | 4.36 | 38.2
14 | Cc1ccc(-c2nc3nc(-c4ccc(Cl)cc4)nc(N4CCCNCC4)c3o2)cc1 | 1.78 | 3.42
15 | Cc1nn(-c2ccccc2)cc1/C=N/Nc1nc(Nc2ccccc2)nc(Nc2ccc(S(N)(=O)=O)cc2)n1 | 1.52 | 3.27
16 | O=C1Nc2cc(OC(F)(F)F)ccc2Oc2ccc(-c3ccnc(N4CC[C@H](O)C4)c3)cc21 | 0.0129 | 0.368
17 | Cc1cc(Nc2ncc(Cl)c(Nc3ccccc3S(=O)(=O)C(C)C)n2)c(OC(C)C)cc1C1CCNCC1 | 1.41 | 3.14
18 | O=[N+]([O-])c1ccccc1/C=C/C=C1c2ccccc2-c2ccccc21 | 54.6 | > 100
19 | CNC(=O)c1ccc(Nc2nc(OC3CCCC3)c3c(-c4ccc5nc(C)oc5c4)c[nH]c3n2)c(OC)c1 | 0.424 | 27.6
20 | COc1cc(C(=O)O)ccc1NC(=O)[C@@H]1N[C@@H](CC(C)(C)C)[C@](C#N)(c2ccc(Cl)cc2F)[C@H]1c1cccc(Cl)c1F | 5.12 | 16.2
21 | CCN(CC)CCCN1C(=O)c2c(c(C)c3c(oc4cc(O)ccc43)c2C)C1=O | 1.57 | 3.13
22 | O=C(CSc1nc2sc3c(c2c(=O)n1-c1ccccc1)CCCCC3)N/N=C/c1ccc(F)cc1 | 2.35 | 8.02
23 | C[C@]12CC[C@H]3[C@@H](CC=C4C[C@@H](O)CC[C@@]43C)[C@@H]1C/C(=C\c1cccc(OCCCn3ccnc3)c1)[C@@H]2O | 7.43 | 31.3

Row | Compound | GI50 [µM] | TGI [µM]
24 | N#C/C(=C\c1ccc(Cl)cc1)n1nnc2cc(F)c(F)cc21 | 1.47 | 3.23
25 | O=C(Nc1cccc(-c2nc3ccccc3[nH]2)c1)c1cccc(NC(=O)c2ccco2)c1 | 1.74 | 3.99
26 | O=S(=O)(NCCNc1cc(-c2cn(-c3ccccc3)nc2-c2cccc(O)c2)ccn1)c1ccc(F)cc1 | 1.88 | 5.33
27 | O=C1CC(N2C(=O)/C(=C/C(Cl)=C\c3ccc([N+](=O)[O-])cc3)SC2=S)C(=O)N1c1ccc(Cl)cc1 (stereo not given) | 1.33 | 3.1
28 | CCOC(=O)c1ccc2[nH]c(Cc3[nH]c4ccc(C(=O)OCC)cc4c3C)c(C)c2c1 | 5.59 | 28.9
29 | CC(=O)O[C@H]1C(=O)[C@@]2(C)[C@H]([C@H](OC(=O)c3ccccc3)[C@]3(O)C[C@H](OC(=O)[C@H](OC(=O)CCC(=O)OC4CCC(S/N=C(N)/N=C(\N)N(C)C)CC4)[C@@H](NC(=O)c4ccccc4)c4ccccc4)C(C)=C1C3(C)C)[C@]1(OC(C)=O)CO[C@@H]1C[C@@H]2O (stereo not given in full) | 0.00732 | 0.0433
30 | CN1CCN(CCCOc2ccc3ncnc(Nc4ccc(Oc5cccc(C(F)(F)F)c5)c(Cl)c4)c3c2)CC1 | 1.07 | 2.87
31 | CS(=O)(=O)Nc1cc(-c2ccc3ncc(C#N)c(NCc4ccccc4)c3c2)cnc1Cl | 0.0819 | 0.896
32 | C/C(=C\c1ccn(-c2ccc(N)cc2C(F)(F)F)n1)[C@@H]1C[C@@H]2O[C@]2(C)CCC[C@H](C)[C@H](O)[C@@H](C)C(=O)C(C)(C)[C@@H](O)CC(=O)O1 | 0.289 | 0.873
33 | CN1CCN(Cc2ccc(NC(=O)c3[nH]ncc3Nc3ccnc4ccsc34)cc2)CC1 | 2.12 | 5.54
34 | Cc1cccc(Oc2ccc(Nc3ncnc4ccc(NC(=O)CN5CCN(C)CC5)cc34)cc2Cl)c1 | 0.448 | 2.07
35 | CCN(CC)CCCC(C)N/C(c1cccc(OC)c1)=c1\c(=O)[nH]n(-c2c3ccccc3nc3ccccc23)c(=O)\c1=C(/NC(C)CCCN(CC)CC)c1cccc(OC)c1 (stereo not given) | 1.18 | 3.09
36 | CN(C)c1ccc2[nH]c(O)c(C=Nc3ccc(S(N)(=O)=O)cc3)c2c1 | > 25 | > 25
37 | C=C1C(=O)O[C@H]2[C@H]1CC/C(COC(=O)N[C@@H](Cc1c[nH]c3ccccc13)C(=O)OC)=C\CC[C@@]1(C)O[C@@H]21 | 1.23 | 3.05
38 | Cc1c(N(C(=O)c2cc(-c3cc(Cl)ccc3C(=O)N3Cc4ccccc4C[C@H]3CN3CCOCC3)n(C)c2C)c2ccc(O)cc2)cc(C#N)n1C | 4.7 | 25.2
39 | O=C(Nc1nc(-c2ccc(Cl)cc2)cs1)c1ccc(O)c(O)c1 | 3.77 | 25.5
40 | C[C@]12CC[C@H](O)C[C@@H]1CC[C@@H]1[C@@H]2CC[C@@]2(C)[C@H]1CC[C@@H]2[C@](C)(O)CCc1ccc(F)cc1 | 2.44 | 28.2
41 | Nc1c(C(=O)Nc2cccc3ccccc23)sc2nc3c(cc12)CCCCC3 | 0.231 | > 50
42 | CCCCCCCCO/N=C\c1c2c(O)c3c(O)c(C)c4c(c3c1O)C(=O)C(C)(O/C=C\C(OC)C(C)C(OC(C)=O)C(C)C(O)C(C)C(O)C(C)/C=C\C=C(\C)C(=O)N2)O4 (stereo not given) | 1.37 | 5.11
43 | Fc1ccc(Nc2ccc3cc(OCCCN4CCOCC4)ccc3n2)cc1F | 3.35 | 19.3
44 | COc1cc(N)ccc1Nc1c2ccccc2nc2ccccc12 | 11.8 | 28.8
45 | O=C1CN2CCC1C/C2=C\c1ccnc2c(Cl)cccc12 (stereo not given) | 14.8 | 57.9
